Reference: patent US20250331519A1, “HERBICIDAL DERIVATIVES” (SYNGENTA CROP PROTECTION AG, priority 2022, published 2025)

Legend:
Assay type in all cases: in vivo
[1] = system: Ipomoea hederacea (IPOHE); assay: Pre-emergence herbicidal glasshouse test; details: evaluated after 13 days, five-point scale
Setaria faberi (SETFA) [2] = assay: Pre-emergence herbicidal glasshouse test; details: evaluated after 13 days, five-point scale
Zea mays (ZEAMX) [3] = assay: Pre-emergence herbicidal glasshouse test; details: evaluated after 13 days, five-point scale
[4] = system: Echinochloa crus-galli (ECHCG); assay: Pre-emergence herbicidal glasshouse test; details: evaluated after 13 days, five-point scale
[5] = system: Amaranthus palmeri (AMAPA); assay: Pre-emergence herbicidal glasshouse test; details: evaluated after 13 days, five-point scale
[6] = system: Amaranthus retoflexus (AMARE); assay: Pre-emergence herbicidal glasshouse test; details: evaluated after 13 days, five-point scale
[7] = system: Amaranthus palmeri (AMAPA); assay: Post-emergence herbicidal glasshouse test; details: sprayed after 8 days cultivation, evaluated after 13 days, five-point scale
Protocol: (§1) Seeds of a variety of test species are sown in standard soil in pots (Ipomoea hederacea (IPOHE), Setaria faberi (SETFA), Zea mays (ZEAMX), Echinochloa crus-galli (ECHCG), Amaranthus palmeri (AMAPA), Amaranthus retoflexus (AMARE)). After 8 days cultivation under controlled conditions in a glasshouse (at 24° C./16° C., day/night; 14 hours light; 65% humidity), the plants are sprayed with an aqueous spray solution derived from the formulation of the technical active ingredient in acetone/water (50:50) solution containing 0.5% Tween 20 (polyoxyethelyene sorbitan monolaurate, CAS RN 9005-64-5). Compounds are applied at 1000 g/ha unless otherwise stated. The test plants are then grown in a glasshouse under controlled conditions in a glasshouse (at 24° C./16° C., day/night; 14 hours light; 65% humidity) and watered twice daily. After 13 days the test is evaluated for the percentage damage caused to the plant. The biological activities are shown in the following table on a five-point scale (5=81-100%; 4=61-80%; 3=41-60%; 2=21-40%; 1=0-20%; -=not tested).

[8] = system: Amaranthus retoflexus (AMARE); assay: Post-emergence herbicidal glasshouse test; details: sprayed after 8 days cultivation, evaluated after 13 days, five-point scale
Protocol: as §1

[9] = system: Echinochloa crus-galli (ECHCG); assay: Post-emergence herbicidal glasshouse test; details: sprayed after 8 days cultivation, evaluated after 13 days, five-point scale
Protocol: as §1

[10] = system: Ipomoea hederacea (IPOHE); assay: Post-emergence herbicidal glasshouse test; details: sprayed after 8 days cultivation, evaluated after 13 days, five-point scale
Protocol: as §1

Setaria faberi (SETFA) [11] = assay: Post-emergence herbicidal glasshouse test; details: sprayed after 8 days cultivation, evaluated after 13 days, five-point scale
Protocol: as §1

Zea mays (ZEAMX) [12] = assay: Post-emergence herbicidal glasshouse test; details: sprayed after 8 days cultivation, evaluated after 13 days, five-point scale
Protocol: as §1

Row | Compound | percentage damage caused to the plant, IPOHE ([1]; 1000 g/ha) | percentage damage caused to the plant, SEFTA (Setaria faberi (SETFA) [2]; 1000 g/ha) | percentage damage caused to the plant, ZEAMX (Zea mays (ZEAMX) [3]; 1000 g/ha) | percentage damage caused to the plant, ECHCG ([4]; 1000 g/ha) | percentage damage caused to the plant, ECHCG ([9]; 1000 g/ha) | percentage damage caused to the plant, IPOHE ([10]; 1000 g/ha) | percentage damage caused to the plant, SEFTA (Setaria faberi (SETFA) [11]; 1000 g/ha) | percentage damage caused to the plant, ZEAMX (Zea mays (ZEAMX) [12]; 1000 g/ha) | other results
1 | CCn1c(C)c(-n2ccc(C(F)(F)F)n2)c(=O)c(C(=O)O)c1-c1ccc(Cl)c(Cl)c1 [Compound 1, 2-(3,4-dichlorophenyl)-1-ethyl-6-methyl-4-oxo-5-[3-(trifluoromethyl)pyrazol-1-yl]pyridine-3-carboxylic acid] | 4 (4=61-80%) | 1 (1=0-20%) | 0 | 0 | 1 (1=0-20%) | 2 (2=21-40%) | 1 (1=0-20%) | 1 (1=0-20%) | percentage damage caused to the plant, AMAPA ([5]; 1000 g/ha): 0; percentage damage caused to the plant, AMARE ([6]; 1000 g/ha): 0; percentage damage caused to the plant, AMAPA ([7]; 1000 g/ha): 3 (3=41-60%); percentage damage caused to the plant, AMARE ([8]; 1000 g/ha): 2 (2=21-40%)
2 | CCn1c(C)c(-n2ccc(Cl)n2)c(=O)c(C(=O)O)c1-c1ccc(Cl)c(Cl)c1 [Compound 2, 5-(3-chloropyrazol-1-yl)-2-(3,4-dichlorophenyl)-1-ethyl-6-methyl-4-oxo-pyridine-3-carboxylic acid] | 4 (4=61-80%) | 3 (3=41-60%) | 1 (1=0-20%) | 0 | 4 (4=61-80%) | 4 (4=61-80%) | 4 (4=61-80%) | 3 (3=41-60%) | 
3 | CCn1c(C)c(-n2cc(Cl)cn2)c(=O)c(C(=O)O)c1-c1ccc(Cl)c(Cl)c1 [Compound 3, 5-(4-chloropyrazol-1-yl)-2-(3,4-dichlorophenyl)-1-ethyl-6-methyl-4-oxo-pyridine-3-carboxylic acid] |  |  |  |  |  |  |  |  | percentage damage caused to the plant, IPOHE ([1]; 250 g/Ha): 0; percentage damage caused to the plant, SEFTA (Setaria faberi (SETFA) [2]; 250 g/Ha): 2 (2=21-40%); percentage damage caused to the plant, ZEAMX (Zea mays (ZEAMX) [3]; 250 g/Ha): 0; percentage damage caused to the plant, ECHCG ([4]; 250 g/Ha): 1 (1=0-20%); percentage damage caused to the plant, AMAPA ([5]; 250 g/Ha): 0; percentage damage caused to the plant, AMARE ([6]; 250 g/Ha): 0; percentage damage caused to the plant, AMAPA ([7]; 250 g/Ha): 3 (3=41-60%); percentage damage caused to the plant, AMARE ([8]; 250 g/Ha): 3 (3=41-60%); percentage damage caused to the plant, ECHCG ([9]; 250 g/Ha): 3 (3=41-60%); percentage damage caused to the plant, IPOHE ([10]; 250 g/Ha): 2 (2=21-40%); percentage damage caused to the plant, SEFTA (Setaria faberi (SETFA) [11]; 250 g/Ha): 3 (3=41-60%); percentage damage caused to the plant, ZEAMX (Zea mays (ZEAMX) [12]; 250 g/Ha): 2 (2=21-40%)
